# Experimental data: ChEMBL document CHEMBL5113489, “Design, synthesis, and biological evaluation of membrane-active honokiol derivatives as potent antibacterial agents” (Eur J Med Chem, 2022)
# Experiments:
# Bacillus subtilis = assay: Antibacterial activity against Bacillus subtilis ATCC 9372; format: functional
# Staphylococcus aureus [1] = assay: Antibacterial activity against Staphylococcus aureus ATCC 31007; format: functional
# Staphylococcus aureus [2] = assay: Antibacterial activity against Staphylococcus aureus ATCC 43300; format: functional
# Pseudomonas aeruginosa = assay: Antibacterial activity against Pseudomonas aeruginosa ATCC 27853; format: functional
# Escherichia coli [3] = assay: Antibacterial activity against Escherichia coli ATCC 25922; format: functional
# Staphylococcus aureus [4] = assay: Antibacterial activity against Staphylococcus aureus ATCC 25923; format: functional
# [5] = Hemolytic activity in sheep RBC; format: toxicity, cell-based, Ovis aries, Erythrocyte; settings: sheep red blood cells (erythrocytes)
# [6] = Selectivity index, ratio of HC50 for hemolytic activity in sheep RBC to MIC for antibacterial activity against Staphylococcus aureus ATCC 43300; format: toxicity; settings: sheep red blood cells (erythrocytes)
# Staphylococcus aureus [7] = assay: Antibacterial activity against Staphylococcus aureus ATCC 43300 assessed as resistance development by measuring fold increase in MIC; format: functional
# Staphylococcus aureus [8] = assay: In vivo antibacterial activity against Staphylococcus aureus ATCC 43300 in septicemia mouse model assessed as log reduction in bacterial load in spleen at 5 mg/kg, administered every 12 hrs for 3 days; format: functional
# Staphylococcus aureus [9] = assay: In vivo antibacterial activity against Staphylococcus aureus ATCC 43300 in septicemia mouse model assessed as log reduction in bacterial load in liver at 5 mg/kg, administered every 12 hrs for 3 days; format: functional
# Staphylococcus aureus [10] = assay: In vivo antibacterial activity against Staphylococcus aureus ATCC 43300 in septicemia mouse model assessed as log reduction in bacterial load in kidney at 5 mg/kg, administered every 12 hrs for 3 days; format: functional
# Escherichia coli [11] = assay: Antibacterial activity against Escherichia coli ATCC 25922 assessed as resistance development by measuring fold increase in MIC; format: functional
Compound,MIC (Bacillus subtilis),MIC (Staphylococcus aureus [1]),MIC (Staphylococcus aureus [2]),MIC (Pseudomonas aeruginosa),MIC (Escherichia coli [3]),MIC (Staphylococcus aureus [4]),HC50 [5],selectivity ratio [6],fold change (FC) (Staphylococcus aureus [7]),log(activity) (Staphylococcus aureus [8]),log(activity) (Staphylococcus aureus [9]),log(activity) (Staphylococcus aureus [10]),fold change (FC) (Escherichia coli [11])
C=CCc1ccc(OCCC[N+](C)(C)CCCCCCCCCC)c(-c2ccc(OCCC[N+](C)(C)CCCCCCCCCC)c(CC=C)c2)c1.[Br-].[Br-],2 µg/mL,32 µg/mL,4 µg/mL,> 128 µg/mL,> 128 µg/mL,16 µg/mL,,,,,,,
C=CCc1ccc(OCC(=O)NC(CCCCN)C(=O)NCCCCCCCCCC)c(-c2ccc(OCC(=O)NC(CCCCN)C(=O)NCCCCCCCCCC)c(CC=C)c2)c1.O=C(O)C(F)(F)F.O=C(O)C(F)(F)F (stereo not given),4 µg/mL,8 µg/mL,4 µg/mL,16 µg/mL,16 µg/mL,4 µg/mL,> 1280 µg/mL,> 320,,,,,
C=CCc1ccc(OCC(=O)NCCC[N+](C)(C)CCCCCCCCCCCC)c(-c2ccc(OCC(=O)NCCC[N+](C)(C)CCCCCCCCCCCC)c(CC=C)c2)c1.[Br-].[Br-],32 µg/mL,8 µg/mL,4 µg/mL,128 µg/mL,32 µg/mL,8 µg/mL,,,,,,,
C=CCc1ccc(OCCC[N+](C)(C)CCCCCCCCCCCCCC)c(-c2ccc(OCCC[N+](C)(C)CCCCCCCCCCCCCC)c(CC=C)c2)c1.[Br-].[Br-],> 128 µg/mL,128 µg/mL,> 128 µg/mL,> 128 µg/mL,> 128 µg/mL,16 µg/mL,,,,,,,
CN[C@H](CC(C)C)C(=O)N[C@H]1C(=O)N[C@@H](CC(N)=O)C(=O)N[C@H]2C(=O)N[C@H]3C(=O)N[C@H](C(=O)N[C@H](C(=O)O)c4cc(O)cc(O)c4-c4cc3ccc4O)[C@H](O)c3ccc(c(Cl)c3)Oc3cc2cc(c3O[C@@H]2O[C@H](CO)[C@@H](O)[C@H](O)[C@H]2O[C@H]2C[C@](C)(N)[C@H](O)[C@H](C)O2)Oc2ccc(cc2Cl)[C@H]1O [VANCOMYCIN],0.5 µg/mL,,,> 128 µg/mL,> 128 µg/mL,,,,,,,,
C=CCc1ccc(OCC(=O)NC(CCCCN)C(=O)NCCCCCCCC)c(-c2ccc(OCC(=O)NC(CCCCN)C(=O)NCCCCCCCC)c(CC=C)c2)c1.O=C(O)C(F)(F)F.O=C(O)C(F)(F)F (stereo not given),8 µg/mL,16 µg/mL,8 µg/mL,128 µg/mL,64 µg/mL,16 µg/mL,,,,,,,
C=CCc1ccc(OCC(=O)NCCN)c(-c2ccc(OCC(=O)NCCN)c(CC=C)c2)c1.O=C(O)C(F)(F)F.O=C(O)C(F)(F)F,128 µg/mL,32 µg/mL,32 µg/mL,128 µg/mL,64 µg/mL,32 µg/mL,,,,,,,
C=CCc1ccc(OCC(=O)NC(CCCCN)C(=O)NCCCCCCCCCCCC)c(-c2ccc(OCC(=O)NC(CCCCN)C(=O)NCCCCCCCCCCCC)c(CC=C)c2)c1.O=C(O)C(F)(F)F.O=C(O)C(F)(F)F (stereo not given),> 128 µg/mL,64 µg/mL,64 µg/mL,> 128 µg/mL,> 128 µg/mL,128 µg/mL,,,,,,,
C=CCc1ccc(OCC(=O)NC(CCCCN)C(=O)NCc2ccc(C(C)(C)C)cc2)c(-c2ccc(OCC(=O)NC(CCCCN)C(=O)NCc3ccc(C(C)(C)C)cc3)c(CC=C)c2)c1.O=C(O)C(F)(F)F.O=C(O)C(F)(F)F (stereo not given),4 µg/mL,16 µg/mL,4 µg/mL,> 128 µg/mL,128 µg/mL,8 µg/mL,,,,,,,
CCn1cc(C(=O)O)c(=O)c2cc(F)c(N3CCNCC3)cc21 [NORFLOXACIN],,,,,,,,,256,,,,
C=CCc1ccc(OCCN)c(-c2ccc(OCCN)c(CC=C)c2)c1.Cl.Cl,32 µg/mL,16 µg/mL,8 µg/mL,64 µg/mL,16 µg/mL,8 µg/mL,694 µg/mL,86.7,,,,,
O=C(O)c1cn(C2CC2)c2cc(N3CCNCC3)c(F)cc2c1=O [CIPROFLOXACIN],,,,,,,,,,1.52,2.01,1.56,
COLISTIN,8 µg/mL,128 µg/mL,64 µg/mL,1 µg/mL,2 µg/mL,64 µg/mL,,,,,,,64
C=CCc1ccc(OCC(=O)NCCC[N+](C)(C)CCCCCCCC)c(-c2ccc(OCC(=O)NCCC[N+](C)(C)CCCCCCCC)c(CC=C)c2)c1.[Br-].[Br-],4 µg/mL,4 µg/mL,2 µg/mL,16 µg/mL,8 µg/mL,2 µg/mL,123 µg/mL,61.5,,,,,
C=CCc1ccc(OCC(=O)NC(CCCCN)C(=O)NCCCCCC)c(-c2ccc(OCC(=O)NC(CCCCN)C(=O)NCCCCCC)c(CC=C)c2)c1.O=C(O)C(F)(F)F.O=C(O)C(F)(F)F (stereo not given),8 µg/mL,8 µg/mL,8 µg/mL,16 µg/mL,16 µg/mL,8 µg/mL,502 µg/mL,62.7,,,,,
C=CCc1ccc(OCC(=O)NC(CCCCN)C(=O)NCC23CC4CC(CC(C4)C2)C3)c(-c2ccc(OCC(=O)NC(CCCCN)C(=O)NCC34CC5CC(CC(C5)C3)C4)c(CC=C)c2)c1.O=C(O)C(F)(F)F.O=C(O)C(F)(F)F (stereo not given),4 µg/mL,4 µg/mL,4 µg/mL,> 128 µg/mL,> 128 µg/mL,8 µg/mL,1280 µg/mL,> 320,,,,,
C=CCc1ccc(OCC(=O)NCCCN)c(-c2ccc(OCC(=O)NCCCN)c(CC=C)c2)c1.O=C(O)C(F)(F)F.O=C(O)C(F)(F)F,> 128 µg/mL,64 µg/mL,64 µg/mL,64 µg/mL,128 µg/mL,32 µg/mL,,,,,,,
C=CCc1ccc(OCC(=O)NCCC[N+](C)(C)CCCCCC)c(-c2ccc(OCC(=O)NCCC[N+](C)(C)CCCCCC)c(CC=C)c2)c1.[Br-].[Br-],16 µg/mL,16 µg/mL,16 µg/mL,128 µg/mL,16 µg/mL,8 µg/mL,183 µg/mL,11.4,,,,,
C=CCc1ccc(OCCC[N+](C)(C)CCCC)c(-c2ccc(OCCC[N+](C)(C)CCCC)c(CC=C)c2)c1.[Br-].[Br-],4 µg/mL,8 µg/mL,4 µg/mL,128 µg/mL,16 µg/mL,4 µg/mL,1180 µg/mL,295,,,,,

# The next lines start with results.
MIC (Bacillus subtilis),MIC (Staphylococcus aureus [1]),MIC (Staphylococcus aureus [2]),MIC (Pseudomonas aeruginosa),MIC (Escherichia coli [3]),MIC (Staphylococcus aureus [4]),Compound,HC50 [5],selectivity ratio [6],fold change (FC) (Staphylococcus aureus [7]),log(activity) (Staphylococcus aureus [8]),log(activity) (Staphylococcus aureus [9]),log(activity) (Staphylococcus aureus [10]),fold change (FC) (Escherichia coli [11])
1 µg/mL,2 µg/mL,2 µg/mL,16 µg/mL,8 µg/mL,2 µg/mL,C=CCc1ccc(OCCC[N+](C)(C)CCCCCCCC)c(-c2ccc(OCCC[N+](C)(C)CCCCCCCC)c(CC=C)c2)c1.[Br-].[Br-],36 µg/mL,18,,,,,
> 128 µg/mL,128 µg/mL,> 128 µg/mL,> 128 µg/mL,16 µg/mL,64 µg/mL,C=CCc1ccc(OCC(=O)NCCC[N+](C)(C)C)c(-c2ccc(OCC(=O)NCCC[N+](C)(C)C)c(CC=C)c2)c1.[I-].[I-],,,,,,,
> 128 µg/mL,128 µg/mL,128 µg/mL,> 128 µg/mL,128 µg/mL,64 µg/mL,C=CCc1ccc(OCC(=O)NCCC[N+](C)(C)CCCC)c(-c2ccc(OCC(=O)NCCC[N+](C)(C)CCCC)c(CC=C)c2)c1.[Br-].[Br-],,,,,,,
> 128 µg/mL,128 µg/mL,> 128 µg/mL,> 128 µg/mL,> 128 µg/mL,128 µg/mL,C=CCc1ccc(OCCC[N+](C)(C)CCCCCCCCCCCC)c(-c2ccc(OCCC[N+](C)(C)CCCCCCCCCCCC)c(CC=C)c2)c1.[Br-].[Br-],,,,,,,
32 µg/mL,8 µg/mL,4 µg/mL,64 µg/mL,> 128 µg/mL,4 µg/mL,C=CCc1ccc(OCCCN)c(-c2ccc(OCCCN)c(CC=C)c2)c1.Cl.Cl,438 µg/mL,110,,,,,
32 µg/mL,64 µg/mL,128 µg/mL,> 128 µg/mL,> 128 µg/mL,64 µg/mL,C=CCc1ccc(O)c(-c2ccc(O)c(CC=C)c2)c1 [HONOKIOL],,,,,,,
8 µg/mL,32 µg/mL,16 µg/mL,> 128 µg/mL,> 128 µg/mL,32 µg/mL,C=CCc1ccc(OCC(=O)NC(CCCCN)C(=O)NCc2ccc(-c3ccccc3)cc2)c(-c2ccc(OCC(=O)NC(CCCCN)C(=O)NCc3ccc(-c4ccccc4)cc3)c(CC=C)c2)c1.O=C(O)C(F)(F)F.O=C(O)C(F)(F)F (stereo not given),,,,,,,
8 µg/mL,32 µg/mL,16 µg/mL,32 µg/mL,32 µg/mL,16 µg/mL,C=CCc1ccc(OCC(=O)NC(CCCCN)C(=O)NCCCC)c(-c2ccc(OCC(=O)NC(CCCCN)C(=O)NCCCC)c(CC=C)c2)c1.O=C(O)C(F)(F)F.O=C(O)C(F)(F)F (stereo not given),,,,,,,
8 µg/mL,4 µg/mL,4 µg/mL,128 µg/mL,32 µg/mL,2 µg/mL,C=CCc1ccc(OCC(=O)NCCC[N+](C)(C)CCCCCCCCCC)c(-c2ccc(OCC(=O)NCCC[N+](C)(C)CCCCCCCCCC)c(CC=C)c2)c1.[Br-].[Br-],53 µg/mL,13.2,,,,,
128 µg/mL,64 µg/mL,32 µg/mL,64 µg/mL,128 µg/mL,32 µg/mL,C=CCc1ccc(OCC(=O)NCCCCN)c(-c2ccc(OCC(=O)NCCCCN)c(CC=C)c2)c1.O=C(O)C(F)(F)F.O=C(O)C(F)(F)F,,,,,,,
> 128 µg/mL,128 µg/mL,> 128 µg/mL,> 128 µg/mL,> 128 µg/mL,128 µg/mL,C=CCc1ccc(OCC(=O)NCCCN(C)C)c(-c2ccc(OCC(=O)NCCCN(C)C)c(CC=C)c2)c1,,,,,,,
